These results are taken from US20120020958A1, “FIBCD1 FOR THE PREVENTION AND TREATMENT OF DISEASES” (Dansk Universitet, priority 2008, published 2012).

One experiment has as its system mice. Conditions: cited from earlier work.
Experiment [1] concerns spleen cells isolated from the ragweed-immunized mice. Particulars: ragweed/chitin stimulation, 3 days; cited from earlier work.
For a further experiment, the system named is allergic mouse model. Conditions: oral administration; cited from earlier work.
The target of experiment [2] is T1, FIBCD1 (the FReD of FIBCD1) (Homo sapiens, UniProt Q8N539).
T1 construct: 20 μg of the FIBCD1 (the FReD of FIBCD1)
T1 sequence (Q8N539 235-458 limits assumed): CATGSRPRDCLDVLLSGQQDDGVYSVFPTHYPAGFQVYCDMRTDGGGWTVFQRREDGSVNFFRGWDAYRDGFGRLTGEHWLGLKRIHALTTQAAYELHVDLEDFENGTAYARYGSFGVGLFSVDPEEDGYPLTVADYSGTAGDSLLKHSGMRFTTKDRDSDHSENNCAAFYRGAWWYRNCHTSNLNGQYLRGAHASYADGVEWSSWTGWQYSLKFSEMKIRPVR
As to the kind of experiment: Pull-down assay of FIBCD1 (FReD) with insoluble polysaccharides. Particulars: 20 μg FIBCD1 FReD, 2 mg insoluble substance. Type of experiment: binding. As for the experimental part:
(B) Microtiterplates were coated with LTA, mannan, peptidoglycan or NAc-BSA and increasing concentrations of FIBCD1 was added. (C) Pull-down assays where 20 μg of the FIBCD1 (the FReD of FIBCD1) or as a positive control 20 μg of wheat germ agglutinin (WGA) was added to 2 mg insoluble chitin, cellulose, zymozane or beta-glucan. […] BSA was used as control. Pellet fractions were analyzed by SDS-PAGE and Coomassie blue staining.

The target of a further experiment is T2, acetylated BSA (Bos taurus, UniProt P02769).
T2 construct: purchased Sigma
The experiment in a line: Binding of mutated forms of the FReD of FIBCD1 to acetylated BSA (ELISA). Particulars: site directed mutagenesis of FIBCD1 FReD. As for the experimental part:
Microtiter plates were coated with acetylated BSA or BSA and blocked with TBS/Tw before being incubated with FIBCD1 samples diluted in TBS/Tw (5 mM CaCl2). The FIBCD1 samples were added from 1 μg/ml in a twofold dilution series. The signal from binding of protein to BSA was subtracted from the signal from binding to acetylated BSA. The resulting normalized signals were then expressed as a percentage of the signal from FIBCD1FReD at 1 μg/ml, which was set at 100%. The experiment was repeated three times.
Generation of HEK293 and CHO cells expressing recombinant forms of FIBCD1 In order to generate cells expressing recombinant forms of FIBCD1, the Flp-In™ system (Invitrogen) was utilized. In this system the cDNA is integrated into a specific genomic site. Flp-In™ T-REx™ HEK293 cells or CHO Flp-In™ T-REx™ (Invitrogen) was used as host cells. HEK293 cells were cultured in Dulbecco's modified Eagle medium (DMEM; Invitrogen) and CHO cells in Hams F12 medium (Invitrogen) both containing penicillin (100 units/ml), streptomycin (100 μg/ml), 2 mM L-glutamine and 10% fetal bovine serum (Invitrogen). At approximately 50% confluency, cells were co-transfected (ratio 1:9) with the pSecTag/FRT/V5-His TOPO® TA or pcDNA/FRT/V5-His TOPO® TA containing the FIBCD1 construct and the pOG44 vector encoding Flp recombinase, using the jetPEI™ transfection kit (Polyplus-transfection SAS, Illkirch cedex, France). The recombinase mediates insertion of the expression vectors into the genomic integration site. Integration of the vectors confers hygromycin resistance. Thus, 48 hours after transfection the HEK293 and CHO cells were selected for stable integration of the FIBCD1 constructs with 150 μg/ml and 800 μg/ml hygromycin B (Invitrogen), respectively. Hygromycin resistant clones were obtained after two weeks of culture. At confluence cells were transferred to DMEM or Hams F12 medium without serum. Supernatants were harvested after 72 hours of expression and analyzed by SDS-PAGE and Western blotting. […]
Background: An ELISA detects its analyte on a solid surface through an enzyme-linked reagent.

T2 sequence (P02769 25-607): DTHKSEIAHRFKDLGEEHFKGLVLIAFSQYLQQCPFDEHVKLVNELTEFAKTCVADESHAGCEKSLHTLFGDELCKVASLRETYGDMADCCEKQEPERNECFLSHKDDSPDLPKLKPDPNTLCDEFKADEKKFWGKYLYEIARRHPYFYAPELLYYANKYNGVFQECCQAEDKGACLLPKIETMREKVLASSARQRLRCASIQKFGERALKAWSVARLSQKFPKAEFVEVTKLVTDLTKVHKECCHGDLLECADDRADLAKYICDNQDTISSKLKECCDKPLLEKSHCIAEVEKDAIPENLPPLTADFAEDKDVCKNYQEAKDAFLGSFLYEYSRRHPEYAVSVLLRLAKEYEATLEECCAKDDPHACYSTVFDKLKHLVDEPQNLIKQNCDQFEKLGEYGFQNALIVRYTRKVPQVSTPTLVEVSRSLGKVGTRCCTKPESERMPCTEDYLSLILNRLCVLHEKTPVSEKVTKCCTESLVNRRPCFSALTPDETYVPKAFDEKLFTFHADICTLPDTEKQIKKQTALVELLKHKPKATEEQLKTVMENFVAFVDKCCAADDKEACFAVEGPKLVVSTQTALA

As for “AMCase: acidic mammalian chitinase, an endo-β-1,3... see b8: endo-β-1,4-N-acetylglucosaminidase”, in the experiment on mice (pre-treatment with AMCase), the chitin-induced cell infiltration entry was “inhibited”.

In the case of chitin, in experiment [1], the IFN-γ production result is on record as “increase”, the IL-4 levels result was “significant decreases”, the IL-5 levels entry was “significant decreases” and the IL-10 levels entry is “significant decreases”. For the same molecule, the “accumulation of IL-4 and IL-13 expressing cells including Th2 cells, eosinophils and basophils” value in the experiment on mice (instilled in the lung (or given intraperitoneally)) was “induced the accumulation”. For the same molecule, in the experiment on allergic mouse model, the lung eosinophilia entry was “down-regulates” and the “serum IgE levels” value is listed as “down-regulates”. In experiment [2], the “binding of FIBCD1 in pull-down” value was “detected”.

B1: H415G: single mutation form of the FReD of FIBCD1 (protein)
chain: ATGSRPRDCLDVLLSGQQDDGVYSVFPTHYPAGFQVYCDMRTDGGGWTVFQRREDGSVNFFRGWDAYRDGFGRLTGEHWLGLKRIHALTTQAAYELHVDLEDFENGTAYARYGSFGVGLFSVDPEEDGYPLTVADYSGTAGDSLLKHSGMRFTTKDRDSDHSENNCAAFYRGAWWYRNCGTSNLNGQYLRGAHASYADGVEWSSWTGWQYSLKFSEMKIRPVREDR
For the molecule B1, the “binding of mutated FIBCD1 to NAc-BSA” value with acetylated BSA is on record as “completely arrogate”.

B2: W443S: single mutation form of the FReD of FIBCD1 (protein)
chain: ATGSRPRDCLDVLLSGQQDDGVYSVFPTHYPAGFQVYCDMRTDGGGWTVFQRREDGSVNFFRGWDAYRDGFGRLTGEHWLGLKRIHALTTQAAYELHVDLEDFENGTAYARYGSFGVGLFSVDPEEDGYPLTVADYSGTAGDSLLKHSGMRFTTKDRDSDHSENNCAAFYRGAWWYRNCHTSNLNGQYLRGAHASYADGVEWSSWTGSQYSLKFSEMKIRPVREDR
For B2, the “binding of mutated FIBCD1 to NAc-BSA” value in the experiment with acetylated BSA is “partially arrogated”.

B3: A432V: single mutation form of the FReD of FIBCD1 (protein)
chain: ATGSRPRDCLDVLLSGQQDDGVYSVFPTHYPAGFQVYCDMRTDGGGWTVFQRREDGSVNFFRGWDAYRDGFGRLTGEHWLGLKRIHALTTQAAYELHVDLEDFENGTAYARYGSFGVGLFSVDPEEDGYPLTVADYSGTAGDSLLKHSGMRFTTKDRDSDHSENNCAAFYRGAWWYRNCHTSNLNGQYLRGAHASYVDGVEWSSWTGWQYSLKFSEMKIRPVREDR
For B3, in the experiment with acetylated BSA, the “binding of mutated FIBCD1 to NAc-BSA” value is given as “completely arrogate”.
